Numbers after ± are expanded uncertainties.
Settings: Surface laser light scattering (SLLS); for viscosity: Liquid

Row | Compound | surface tension liquid-gas (293.15 K) [mN/m] | viscosity (293.15 K) [mPa·s] | surface tension liquid-gas (303.15 K) [mN/m] | viscosity (303.15 K) [mPa·s] | surface tension liquid-gas (313.15 K) [mN/m] | viscosity (313.15 K) [mPa·s] | surface tension liquid-gas (323.15 K) [mN/m] | viscosity (323.15 K) [mPa·s] | surface tension liquid-gas (348.15 K) [mN/m] | viscosity (348.15 K) [mPa·s] | surface tension liquid-gas (373.15 K) [mN/m] | viscosity (373.15 K) [mPa·s] | surface tension liquid-gas (398.15 K) [mN/m] | viscosity (398.15 K) [mPa·s] | surface tension liquid-gas (423.15 K) [mN/m] | viscosity (423.15 K) [mPa·s] | surface tension liquid-gas (448.15 K) [mN/m] | viscosity (448.15 K) [mPa·s] | surface tension liquid-gas (473.15 K) [mN/m] | viscosity (473.15 K) [mPa·s] | further results
1 | CCCCCCCC [octane] | 21.31 ± 0.24 | 0.5523 ± 0.021 | 20.53 ± 0.23 | 0.4828 ± 0.019 | 19.45 ± 0.22 | 0.432 ± 0.018 | 18.64 ± 0.21 | 0.387 ± 0.017 | 16.37 ± 0.21 | 0.3079 ± 0.015 | 14 ± 0.14 | 0.2487 ± 0.014 | 11.9 ± 0.12 | 0.2028 ± 0.013 | 9.81 ± 0.15 | 0.1665 ± 0.012 | 7.88 ± 0.07 | 0.1393 ± 0.011 | 5.82 ± 0.1 | 0.1168 ± 0.01 | surface tension liquid-gas (283.15 K): 22.25 ± 0.19 mN/m; viscosity (283.15 K): 0.6247 ± 0.023 mPa·s; surface tension liquid-gas (498.15 K): 4 ± 0.13 mN/m; viscosity (498.15 K): 0.0947 ± 0.01 mPa·s; surface tension liquid-gas (523.15 K): 2.32 ± 0.06 mN/m; viscosity (523.15 K): 0.0755 ± 0.0095 mPa·s
2 | CCCCCC [hexane] | 18.22 ± 0.17 | 0.3127 ± 0.015 | 17.34 ± 0.19 | 0.2809 ± 0.014 | 16.22 ± 0.21 | 0.2546 ± 0.014 | 15.31 ± 0.14 | 0.234 ± 0.013 | 12.94 ± 0.12 | 0.1905 ± 0.012 | 10.53 ± 0.1 | 0.155 ± 0.011 | 8.21 ± 0.08 | 0.1268 ± 0.011 | 5.98 ± 0.06 | 0.1026 ± 0.01 | 3.75 ± 0.07 | 0.0837 ± 0.0097 | 1.89 ± 0.03 | 0.0655 ± 0.0093 | surface tension liquid-gas (283.15 K): 19.28 ± 0.22 mN/m; viscosity (283.15 K): 0.3495 ± 0.016 mPa·s
3 | CCCCCCCCCC [decane] | 23.05 ± 0.57 | 0.9005 ± 0.029 | 22.39 ± 0.48 | 0.79 ± 0.026 | 21.43 ± 0.46 | 0.6924 ± 0.025 | 20.61 ± 0.44 | 0.6091 ± 0.022 | 18.75 ± 0.39 | 0.4636 ± 0.019 | 16.52 ± 0.36 | 0.3614 ± 0.016 | 14.38 ± 0.31 | 0.2895 ± 0.015 | 12.4 ± 0.32 | 0.2403 ± 0.013 | 10.29 ± 0.22 | 0.1978 ± 0.012 | 8.52 ± 0.23 | 0.1677 ± 0.012 | surface tension liquid-gas (283.15 K): 23.94 ± 0.52 mN/m; viscosity (283.15 K): 1.077 ± 0.035 mPa·s; surface tension liquid-gas (498.15 K): 6.58 ± 0.16 mN/m; viscosity (498.15 K): 0.1366 ± 0.011 mPa·s; surface tension liquid-gas (523.15 K): 4.97 ± 0.12 mN/m; viscosity (523.15 K): 0.1138 ± 0.01 mPa·s; surface tension liquid-gas (548.15 K): 3.43 ± 0.1 mN/m; viscosity (548.15 K): 0.0974 ± 0.01 mPa·s; surface tension liquid-gas (573.15 K): 1.94 ± 0.09 mN/m; viscosity (573.15 K): 0.0762 ± 0.0098 mPa·s
4 | CCCCCCCCCCCCCCCC [hexadecane] | 27.38 ± 0.64 | 3.486 ± 0.1 | 26.6 ± 0.7 | 2.772 ± 0.095 | 25.56 ± 0.31 | 2.261 ± 0.081 | 24.28 ± 0.41 | 1.84 ± 0.061 | 22.19 ± 0.31 | 1.236 ± 0.047 | 20.31 ± 0.23 | 0.8927 ± 0.03 | 18.54 ± 0.14 | 0.6788 ± 0.024 | 16.69 ± 0.25 | 0.5351 ± 0.02 | 15.09 ± 0.14 | 0.4256 ± 0.018 | 13.26 ± 0.21 | 0.344 ± 0.016 | surface tension liquid-gas (498.15 K): 11.46 ± 0.19 mN/m; viscosity (498.15 K): 0.2862 ± 0.015 mPa·s; surface tension liquid-gas (523.15 K): 9.72 ± 0.28 mN/m; viscosity (523.15 K): 0.236 ± 0.013 mPa·s; surface tension liquid-gas (548.15 K): 8.25 ± 0.22 mN/m; viscosity (548.15 K): 0.1937 ± 0.013 mPa·s; surface tension liquid-gas (573.15 K): 7 ± 0.29 mN/m; viscosity (573.15 K): 0.1705 ± 0.012 mPa·s
